Paper PMC7179685, “Iminosugars With Endoplasmic Reticulum α-Glucosidase Inhibitor Activity Inhibit ZIKV Replication and Reverse Cytopathogenicity in vitro” (Frontiers in Microbiology, 2020)
Counter-ions that a name gives are not always drawn.

What was measured:
ZIKV = system: ZIKV; parameters: method as in Ma et al., 2018; settings: ref Ma et al., 2018, cited from earlier work
Vero cells = assay: Cytotoxicity, MTS cell viability assay in Vero cells; format: cell-based, African green monkey; settings: 72 h post treatment; for metabolic activity (cytotoxicity, MTS): 1000 μM; for metabolic activity compared to vehicle control (cytotoxicity, MTS): 0.01 to 100 μM
Description: (§1) A cell viability assay was used to evaluate both the cytotoxicity and antiviral abilities of the iminosugars with appropriate controls as previously described ([Fletcher et al., 2000]) using the CellTiter 96® AQueous One Solution Cell Proliferation Assay (MTS, Promega, Madison, WI, United States) following the manufacturer’s instructions. At 60–70% confluence, Vero cells and CHME3 cells were pretreated with iminosugars for 2 h and then infected with ZIKV according to the plate layout shown in Supplementary Figure S1. Four biological replicates were used to assess cytotoxicity, and six replicates were used to assess the antiviral ability of each iminosugar with concentrations ranging from 0.01 to 1000 μM or vehicle (sterile nuclease-free water). Cells treated with iminosugars or vehicle control were infected with ZIKV strain PRVABC59, IBH30656 or MEX 2-81 at a multiplicity of infection (MOI) of 1 in infection medium consisting of DMEM supplemented with 5% FBS and 1% antibiotic/antimycotic solution. The CHME3 infection medium was additionally supplemented with 0.1% non-essential amino acids (NEAA). At 72 h post-infection (hpi), MTS solution was added to the wells, and after 2 h, the optical density was measured at 490 nm using a microplate reader (ELx800; BioTek, Winooski, VT, United States). Previous studies have shown that ER α-glucosidase inhibitor, Celgosivir prevents DENV secretion in primary human macrophages with an EC50 of 5 μM and has CC50 greater than 1000 μM in MBDK cells ([Whitby et al., 2004]; [Sung et al., 2016]).

CHME3 cells [1] = assay: Cytotoxicity, MTS cell viability assay in CHME3 cells; format: cell-based, Human; settings: 72 h post treatment; for metabolic activity (cytotoxicity, MTS): 1000 μM; for metabolic activity compared to vehicle control (cytotoxicity, MTS): 0.01 to 100 μM
Description: as §1

ZIKV PRVABC59 [2] = assay: Virus yield reduction assay (qRT-PCR and TCID50) in Vero cells; format: cell-based, Zika virus; settings: 1 μM, 48 hpi; for PRVABC59 ZIKV RNA in supernatant compared with vehicle control (qRT-PCR): MOI 0.5 and MOI 5, p ≤ 0.0318; for infectious PRVABC59 ZIKV titers (TCID50): MOI 0.5 and MOI 5, p ≤ 0.0433
Description: (§2) Zika virus yield reduction following treatment with iminosugars was assessed by measuring the NS1 gene by a previously described quantitative reverse transcription-polymerase chain reaction (qRT-PCR) and infectious virus titration in Vero cells ([Reed and Muench, 1938]; [Goebel et al., 2016]). Vero and CHME3 cells pre-treated 1 μM of castanospermine, celgosivir or DNJ for 2 h and then were infected with PRVABC59 either at MOI 0.5 or 5 in infection medium. After 2 h of incubation with the virus, medium from cells was removed, cells were washed with phosphate buffered saline, and fresh infection medium containing 1 μM of castanospermine, celgosivir or DNJ was added to the wells. At 48 and 72 hpi, culture supernatants were harvested and stored at −80°C until use for viral RNA extraction. Viral RNA was extracted from 50 μl of sample using the MagMAX-96 Viral RNA Isolation Kit (Applied Biosystems, Foster City, CA, United States) on a MagMAX Express-96 Deep Well Magnetic Particle Processor (Applied Biosystems). The amount of ZIKV genomic RNA was measured by qRT-PCR using SuperScript® III Platinum One-Step qRT-PCR Kit on a 7500 Fast Real-Time PCR System (Applied Biosystems). The primers (F: 5′-[…]-3′, R: 5′-[…]-3′) and probe sequence (5′- FAM-TGCCCAACA/ZEN/CAAGGTGAAGCC TACCT-BHQ) were purchased from Integrated DNA Technologies (IDT; Coralville, IA, United States), and the qRT-PCR cycling conditions included an initial cDNA synthesis for 30 min at 50°C, followed by 2 min at 95°C and 45 cycles of 2-step cycling at 95°C for 15 s, then 55°C for 30 s ([Goebel et al., 2016]). The ZIKV copy numbers were quantified using a standard curve generated with serial dilutions of positive control ZIKV RNA standards derived from ZIKV with known TCID50 value. Cell culture supernatants were titrated for the infectious virus in Vero cells, and titer was expressed as TCID50 calculated using the Reed-Muench method ([Reed and Muench, 1938]).

ZIKV PRVABC59 [3] = assay: Virus yield reduction assay (qRT-PCR and TCID50) in CHME3 cells; format: cell-based, Zika virus; settings: 1 μM, 48 hpi
Description: as §2

ZIKV strain PRVABC59 [4] = assay: Antiviral screening assay (MTS cell viability after infection) in Vero cells; format: cell-based, Zika virus; settings: for ZIKV-induced cell death (MTS): Vero cells, PRVABC59, MOI 1, 72 hpi; for viability at 0.01 µM: Zika virus, Vero, read-out: cell viability following ZIKV infection
Description: as §1

ZIKV strain PRVABC59 [5] = assay: Antiviral screening assay (MTS cell viability after infection) in CHME3 cells; format: cell-based, Zika virus; settings: for ZIKV-induced cell death (MTS): PRVABC59, MOI 1, 72 hpi; for viability at 0.01 µM: Zika virus, read-out: cell viability following ZIKV infection
Description: as §1

[6] = system: activated caspases 3 and 7; assay: Measurement of apoptosis, Caspase-Glo 3/7 assay in ZIKV-infected CHME3 cells; format: cell-based, Human; settings: PRVABC59, MOI 1, 0.01 to 1000 μM, 48 and 72 hpi
Description: Apoptotic cell death was evaluated by measuring the levels of active caspase 3 and 7 in cells using the Caspase-Glo® 3/7 Assay (Promega) following the manufacturer’s instructions. CHME3 cells in 96-well white-walled cell culture plates (Greiner Bio-One, Kremsmünster, Austria) were pre-treated with celgosivir for 2 h and then infected with PRVABC59 at MOI 1 in the presence of celgosivir at concentrations ranging from 0.01 to 1000 μM or vehicle. Controls for media color, cells, and virus were included. At 48 and 72 hpi, Caspase-Glo® Reagent was added, and after 30 min the luminescence of each sample was read five times using a Spark multimode microplate reader (TECAN, Männedorf, Switzerland) at an interval of 2 min for 15 s. The average of the five readings was used as the measurement for each biological replicate.

CHME3 cells [7] = assay: Measurement of necrosis, LDH assay in ZIKV-infected CHME3 cells; format: cell-based, Human; settings: PRVABC59, MOI 1, 72 hpi
Description: Cell necrosis was evaluated by measuring the levels of lactate dehydrogenase (LDH) in cells using the CytoTox 96 Non-Radioactive Cytotoxicity Assay (Promega) following the manufacturer’s instructions. LDH is a soluble stable cytosolic enzyme present in many cell types which is rapidly released into the cell culture medium following disruption of the plasma membrane. LDH is a widely used marker to measure cellular cytotoxicity and necrosis. CHME3 cells in 96-well cell culture plates were pre-treated with celgosivir for 2 h and then infected with PRVABC59 at MOI 1 in the presence of celgosivir at concentrations ranging from 0.01 to 1000 μM or vehicle. Controls for media color, cells, and virus were included. At 48 and 72 hpi, 50 μl of supernatant from each well was transferred into a new 96-well plate, and 50 μl of CytoTox 96® Reagent was added to each well. After incubating at room temperature in the dark, 50 μl of Stop Solution was added to each well, and the optical density was measured at 490 nm using an ELx800 microplate reader (BioTek).

[8] = system: MDA5, RIG-I, MX1, IRF7, IFNβ, ISG15; assay: Antiviral gene expression by qRT-PCR in CHME3 cells; format: cell-based, Human; settings: 1 μM
Description: CHME3 cells grown in 6-well plates and at 70% confluency were infected with PRVABC59 at MOI 1. After pre-incubation with the virus for 2 h, medium from cells was removed, cells were washed with PBS, and fresh infection medium containing 1 μM celgosivir was added. Negative control wells were added with infection medium without celgosivir. Three wells were used for each treatment. At 24, 48, and 72 h, total RNA was extracted from cells using the RNeasy Plus Minikit (Qiagen, Hilden, Germany) according to the manufacturer’s protocol. Complementary DNA was synthesized from 1 μg of total RNA using 4 μl of qScript cDNA SuperMix (5x) (QuantaBio, Beverly, MA, United States). qRT-PCR was performed on a 7500 Fast Real-Time PCR System (Applied Biosystems) using PowerSybr Green PCR MasterMix (Applied Biosystems) according to the manufacturer’s instructions. Expression of retinoic acid-inducible gene 1 (RIGI), melanoma differentiation-associated protein 5 (MDA5), interferon regulatory factor 7 (IRF7), interferon β (IFNβ), interferon-induced GTP-binding protein (MX1) and interferon-stimulated gene 15 (ISG15) were quantified, and hypoxanthine phosphoribosyltransferase 1 (HPRT1) was used as a house-keeping gene for data normalization. All primers used were previously published and were supplied by IDT ([Megiorni et al., 2005]; [Kim et al., 2008]; [Nasirudeen et al., 2011]; [Muramatsu et al., 2014]; [Seng et al., 2014]; [Liu et al., 2015]; [Livingstone et al., 2015]).

DENV = system: DENV; parameters: method as in Whitby et al., 2004; Sung et al., 2016; settings: primary human macrophages; ref Whitby et al., 2004; Sung et al., 2016; read-out: EC50, prevention of DENV secretion; cited from earlier work
MBDK cells = system: MBDK cells; parameters: method as in Whitby et al., 2004; Sung et al., 2016; settings: ref Whitby et al., 2004, Sung et al., 2016; cited from earlier work
dengue virus (DENV) = system: dengue virus (DENV); parameters: method as in Rathore et al., 2011; settings: BHK-21 cells; MOI 0.3; ref Rathore et al., 2011; cited from earlier work

Row | Structure (SMILES) | metabolic activity (cytotoxicity, MTS) (Vero cells) | metabolic activity compared to vehicle control (cytotoxicity, MTS) (Vero cells) | metabolic activity (cytotoxicity, MTS) (CHME3 cells [1]) | metabolic activity compared to vehicle control (cytotoxicity, MTS) (CHME3 cells [1]) | PRVABC59 ZIKV RNA in supernatant compared with vehicle control (qRT-PCR) (ZIKV PRVABC59 [2]) | infectious PRVABC59 ZIKV titers (TCID50) (ZIKV PRVABC59 [2]) | infectious PRVABC59 ZIKV titers (TCID50) (ZIKV PRVABC59 [3]; MOI 0.5) | infectious PRVABC59 ZIKV titers (TCID50) (ZIKV PRVABC59 [3]; MOI 5, p ≤ 0.0433) | ZIKV-induced cell death (MTS) (ZIKV strain PRVABC59 [4]) | viability at 0.01 µM (ZIKV strain PRVABC59 [4]) [%] | ZIKV-induced cell death (MTS) (ZIKV strain PRVABC59 [5]; CHME3 cells) | viability at 0.01 µM (ZIKV strain PRVABC59 [5]) [%] | other results
1 | CC(C)(C)NC(=O)N(CCCCCCN1C[C@H](O)[C@@H](O)[C@H](O)[C@H]1CO)C1CCCCC1 [IHVR-19029] |  |  |  |  |  |  |  |  |  |  |  |  | ZIKV RNA production (ZIKV; HEK293 embryonic kidney cells, MOI 0.1, 0.1 μM, the lowest concentration tested): decreased ZIKV RNA production; ZIKV viral replication (ZIKV; embryonic kidney cells): reduced
2 | CCCC(=O)O[C@H]1CN2CC[C@H](O)[C@@H]2[C@@H](O)[C@@H]1O [celgosivir, 6-O-butanoyl castanospermine] | decrease in metabolic activity | No reduction in metabolic activity | decrease in metabolic activity | No reduction in metabolic activity | Significant reductions | statistically significant reduction | statistically significant reduction | statistically significant reduction | reduce ZIKV-induced cell death | > 90 | reduce ZIKV-induced cell death | > 90 | levels of activated caspases 3 and 7 in comparison to untreated infected cells [6]: did not significantly reduce; ZIKV-induced LDH activity (necrosis) (CHME3 cells [7]): reduced PRVABC59 ZIKV-induced LDH activity to levels equivalent to mock-infected cells; decrease of IFNβ expression levels ([8]; PRVABC59 ZIKV-infected CHME3 cells, treated vs not treated, 48 hpi, p = 0.033): 27%; expression levels of MDA5, RIG-I, MX1, IRF7, and ISG15, treated vs vehicle-treated ([8]; PRVABC59 ZIKV-infected CHME3 cells, any timepoint (24, 48, 72 h)): not significantly different; decrease of IFNβ gene expression ([8]; mock-infected CHME3 cells, treated vs untreated, 48 hpi, statistically significant): 22%; level of IFNβ expression, treated vs untreated ([8]; mock-infected CHME3 cells, 72 hpi): similar; EC50 (DENV): 5 µM; CC50 (MBDK cells): > 1000 µM; effectiveness against DENV relative to castanospermine (dengue virus (DENV)): 100 times
3 | O[C@H]1[C@H](O)[C@@H](O)CN2CC[C@H](O)[C@H]12 [castanospermine] | decrease in metabolic activity | No reduction in metabolic activity | decrease in metabolic activity | No reduction in metabolic activity | Significant reductions | statistically significant reduction | not statistically significant | statistically significant reduction | reduce ZIKV-induced cell death |  | reduce ZIKV-induced cell death |  | PRVABC59 ZIKV RNA in supernatant, reduction vs control cells (qRT-PCR) (ZIKV PRVABC59 [3]; MOI 5): not significant; cell viability following ZIKV infection (ZIKV strain PRVABC59 [5]; CHME3 cells, MOI 1, 10 μM required): 90%
4 | OC[C@H]1NC[C@H](O)[C@@H](O)[C@@H]1O [DNJ, 1-deoxynojirimycin hydrochloride] | decrease in metabolic activity | No reduction in metabolic activity | decrease in metabolic activity | No reduction in metabolic activity | Significant reductions | statistically significant reduction | statistically significant reduction | statistically significant reduction | reduce ZIKV-induced cell death | > 90 | reduce ZIKV-induced cell death | > 90 | 
